Patent publication EP0561489A2, “Deodorant compositions containing materials for inhibiting bacterial adherence, method of use thereof, and method for determining materials that inhibit bacterial adherence” (THE MENNEN COMPANY, priority 1992, dated 1993)

Assays:
[1] = test system: adherence of aerobic diphtheroids to differentiated HE cells; experiment: Inhibition of bacterial adherence to differentiated human epithelial cells; format: cell-based; details: for inhibition at 17000 µg/mL: Homo sapiens, Epithelial cell; for inhibition at 17000 µg/mL / inhibition of attachment of aerobic skin bacteria to differentiated HE cells (in words): 17 mg/ml final concentration
[2] = test system: small colony diphtheroids; details: human stratum corneum blended in physiological saline; U.S. Patent No. 4,518,517; cited from earlier work
[3] = test system: adherence of aerobic diphtheroids to undifferentiated HE cells; experiment: Inhibition of bacterial adherence to undifferentiated human epithelial cells; format: cell-based; details: 17 mg/ml final concentration
Protocol: Skin microorganisms were isolated from the axillae of ten healthy human volunteers (male and female). Corynebacterium diphtheriae, Corynebacterium group J-K, and Escherichia coli 1677 were also obtained. The latter bacteria were included as controls for the adherence experiments. Microorganisms were maintained either by subculture on blood agar plates or trypticase soy agar base with 5% defibrinated sheep's blood. Stock cultures were frozen at -20°C in semi-solid trypticase soy agar for aerobes and chopped meat carbohydrate broth for anaerobes. For in vitro adherence assays the lipophilic corynebacteria were serially subcultured three times for periods of 24 hrs. in tryptose broth with 0.5% Tween-80.
Isolation of microorganisms from the axillae was performed by addition of 1 ml of a 0.1% Triton X-100 solution onto a sterile glass cylinder placed firmly on the skin in the axilla (total area 3.8cm²). […]
Human epithelial (HE) cells (primary culture from normal human epidermal keratinocytes) were used to assess the adherence of the axillary microorganisms. […] Differentiation of HE cells was induced by addition of calcium chloride (CaCl₂) to a concentration of 2 mM/L. Differentiation was assessed by mound formation (3 to 5 layers of cells) during tissue culture and by a modified Ayoub-Shklar's stain for differentiated epithelial cells. […]

Row | Structure (SMILES) | effect on diphtheroid bacterial attachment to the skin sample (in words) [2] | also measured
1 | OC[C@H]1O[C@@](CO)(O[C@H]2O[C@H](CO)[C@@H](O)[C@H](O)[C@H]2O)[C@@H](O)[C@@H]1O [Sucrose, sucrose, reference compound] | a greater amount of bacteria attached to the skin than one treated with mannose | inhibition at 17000 µg/mL [1]: -12.8 to 22.6%
2 | OC[C@H]1O[C@H](OC[C@H]2O[C@H](O[C@]3(CO)O[C@H](CO)[C@@H](O)[C@@H]3O)[C@H](O)[C@@H](O)[C@@H]2O)[C@H](O)[C@@H](O)[C@H]1O [raffinose] | a greater amount of bacteria attached to the skin than one treated with mannose | –
3 | OC[C@H]1O[C@H](O[C@H]2[C@H](O)[C@@H](O)[C@H](O)O[C@@H]2CO)[C@H](O)[C@@H](O)[C@@H]1O [maltose] | a greater amount of bacteria attached to the skin than one treated with mannose | –
4 | O=C(CO)[C@@H](O)[C@H](O)[C@H](O)CO [fructose] | a greater amount of bacteria attached to the skin than one treated with mannose | –
5 | CC(=O)N[C@H]1C(O)O[C@H](CO)[C@@H](O)[C@@H]1O (stereo partly drawn) [NAGA, N-acetyl-D-glucosamine] | neither galactose nor N-acetyl glucosamine had an effect | inhibition of attachment of aerobic skin bacteria to differentiated HE cells (in words) [1]: consistently able to inhibit attachment; inhibition of attachment of aerobic skin bacteria to undifferentiated HE cells (in words) [3]: consistently able to inhibit attachment
6 | OC[C@H]1O[C@@H](O[C@H]2[C@H](O)[C@@H](O)C(O)O[C@@H]2CO)[C@H](O)[C@@H](O)[C@H]1O (stereo partly drawn) [lactose] | a greater amount of bacteria attached to the skin than one treated with mannose | –
7 | C[C@H](O)[C@H](O)[C@@H](O)[C@@H](O)C=O [rhamnose] | a greater amount of bacteria attached to the skin than one treated with mannose | –
8 | C[C@@H](O)[C@H](O)[C@H](O)[C@@H](O)C=O [fucose, D(+) fucose] | – | inhibition of attachment of aerobic skin bacteria to differentiated HE cells (in words) [1]: consistently able to inhibit attachment; inhibition of attachment of aerobic skin bacteria to undifferentiated HE cells (in words) [3]: consistently able to inhibit attachment
9 | O=C[C@H](O)[C@@H](O)[C@@H](O)[C@H](O)CO [galactose, D(+) galactose] | neither galactose nor N-acetyl glucosamine had an effect | inhibition of attachment to differentiated epithelial cells (in words) [1]: poor capacity to inhibit attachment; inhibition at 17000 µg/mL [1]: 70 to 90%
